Data from PMC9356058, “Homocysteine-targeting compounds as a new treatment strategy for diabetic wounds via inhibition of the histone methyltransferase SET7/9” (Experimental & Molecular Medicine, 2022).

Molecular target: T1, SET7/9 (Homo sapiens, UniProt Q8WTS6)
T1 sequence (Q8WTS6 1-366): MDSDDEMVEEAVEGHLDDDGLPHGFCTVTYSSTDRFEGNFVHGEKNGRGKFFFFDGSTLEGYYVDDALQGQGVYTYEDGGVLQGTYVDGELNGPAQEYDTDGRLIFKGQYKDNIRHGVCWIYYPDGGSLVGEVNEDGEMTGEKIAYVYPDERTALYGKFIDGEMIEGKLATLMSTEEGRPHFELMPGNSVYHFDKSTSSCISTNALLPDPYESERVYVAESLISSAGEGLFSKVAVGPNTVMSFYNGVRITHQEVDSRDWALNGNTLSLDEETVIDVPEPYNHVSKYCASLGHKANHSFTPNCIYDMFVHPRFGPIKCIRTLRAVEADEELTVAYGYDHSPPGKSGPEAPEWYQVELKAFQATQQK
Assay: fluorescence polarization, displacement of SAM-binding site probe
Design: gene SETD7; SET7/9 (human recombinant) assay enzyme

`Nc1ncnc2c1ncn2[C@@H]1O[C@H](C[C@@H](N)CC[C@H](N)C(=O)O)[C@@H](O)[C@H]1O` [Sine, 5’-deoxy-5’-(1,4-diamino-4-carboxybutyl)adenosine] was tested, and the IC50 was 6.17 µM.
